# Key:
# [1] = target: mitochondrial pyruvate carrier (MPC) (Homo sapiens (Human), UniProt O95563+Q9Y5U8); test: BRET assay of MPC inhibitory activity in HEK cells; format: cell-based; conditions: HEK cells expressing MPC2-Rluc8 and MPC1-Venus; read-out: IC50 (MPC inhibition, BRET)
# Procedure: The MPC is a heterodimer composed of two subunits, MPC1 and MPC2. MPC1 and MPC2 interact to form an active carrier. In the assay, MPC2 was fused to Rluc8 (Donor) and MPC1 to Venus (Acceptor). These chimeric proteins were stably expressed in HEK cells. BRET activity was measured following addition of coelenterazine in the culture medium. Coelenterazine enters into cells and in contact with luciferase Rluc8 emits light, which activates the emission of fluorescence by the Acceptor, provided the distance between the Donor and Acceptor is <[…]. If the distance between Donor and Acceptor is >[…], no BRET activity is measured. The level of BRET activity reflects a change in the conformation of the MPC: it is high when the carrier is in a closed conformation, low when the carrier is at rest and intermediary when it transports pyruvate. In this case, the BRET activity is the mean value between the BRET value when the carrier is at rest (Maximal distance between Donor and Acceptor) and the BRET value when it is closed (Shortest distance between Donor and Acceptor)
# A wide range of concentrations of each of the tested compounds was used from 1 nM to 100 μM.
# [2] = Plasma pharmacokinetics in mice after single oral 4.5 mg/kg M-III or MIN-102; format: in vivo, male C57BL/6 mice
# Procedure: The plasma pharmacokinetics of 5-[[4-[2-[5-acetylpyridin-2-yl]ethoxy]phenyl]methyl]-1,3-thiazolidine-2,4-dione (M-III) and 5-[[4-[2-[5-(1-hydroxyethyl)pyridin-2-yl]ethoxy]phenyl]methyl]-1,3-thiazolidine-2,4-dione (M-IV) were determined in male C57BL/6 mice following a single oral (4.5 mg/kg) dose of either M-III or MIN-102 (5-[[4-[2-[5-(1-hydroxyethyl)pyridin-2-yl]ethoxy]phenyl]methyl]-1,3-thiazolidine-2,4-dione hydrochloride).
# Animals were administered orally with a suspension formulation of either M-III or MIN-102 in 0.1% Tween 80 and 99.9% NaCMC in water (0.5% w/v) at 4.5 mg/kg dose. The blood samples were collected from a set of three mice at each time point in labeled micro centrifuge tubes containing K2EDTA solution as anticoagulant at Pre-dose, 0.25, 0.5, 1, 2, 4, 8, 12 and 24 hr. Plasma samples were separated by centrifugation of whole blood and stored below −70±10° C. until bioanalysis. All samples were processed for analysis by protein precipitation using acetonitrile and analyzed with fit-for-purpose LC-MS/MS method (LLOQ=2.46 ng/mL for M-III and 2.49 ng/mL for M-IV). Pharmacokinetic parameters were calculated using the non-compartmental analysis tool of Phoenix WinNonlin® (Version 6.3).
# [3] = Plasma pharmacokinetics in rats after single oral 10 mg/kg M-III or MIN-102; format: in vivo, male Sprague Dawley rats
# Procedure: (§1) The plasma pharmacokinetics of 5-[[4-[2-[5-acetylpyridin-2-yl]ethoxy]phenyl]methyl]-1,3-thiazolidine-2,4-dione (M-III; M3) and 5-[[4-[2-[5-(1-hydroxyethyl)pyridin-2-yl]ethoxy]phenyl]methyl]-1,3-thiazolidine-2,4-dione (M-IV; M4) were determined in male Sprague Dawley following a single oral (10 mg/kg) dose administration of either M-III or MIN-102.
# Six animals were dosed orally with a suspension formulation of either M-III or MIN-102 in 0.1% Tween 80 and 99.9% CMC (0.5% w/v solution in RO water) at 10 mg/kg.
# The dosing volume administered was 10 mL/kg. Blood samples (approximately 60 μL) were collected from retro-orbital plexus of three rats at 0.08, 0.25, 0.5, 1, 2, 4, 8, 12 and 24 hr (IV) and at predose, 0.25, 0.5, 1, 2, 4, 8, 12 and 24 hr. Samples were collected into labeled micro-tubes, containing K2EDTA solution (20% K2EDTA solution) as an anticoagulant. Plasma was immediately harvested from the blood by centrifugation at 4000 rpm for 10 min at 4±2° C. and stored below −70° C. until bioanalysis.
# Concentrations of M-III and M-IV in rat plasma samples were determined by fit-for-purpose LC-MS/MS method. Non-Compartmental-Analysis module in Phoenix WinNonlin® (Version 6.3) was used to assess the pharmacokinetic parameters. Peak plasma concentrations (Cax) and time for the peak plasma concentrations (Tmax) were the observed values. The areas under the concentration time curve (AUClast and AUCinf) were calculated by linear trapezoidal rule.
# [4] = Plasma pharmacokinetics in dogs after single oral 3 mg/kg M3 or MIN-102; format: in vivo, male Beagle dogs
# Procedure: as §1, with “male Beagle dogs” for “male Sprague Dawley”, “oral (3” for “oral (10”, “either M3” for “either M-III”
# Six animals were dosed orally with a suspension formulation of either M-III or MIN-102 in 0.1% Tween 80 and 99.9% CMC (aqueous carboxymethylcellulose 0.5% w/v solution in RO water) at 3 mg/kg. Blood samples (0.5 ml) were collected from the saphenous or cephalic or jugular veins of dogs at predose, 0.5, 1, 2, 4, 6 and 24 hr. Samples were collected into labeled micro-tubes, containing K2EDTA solution (20% K2EDTA solution) as an anticoagulant. Plasma was immediately harvested from the blood by centrifugation at 4000 rpm for 10 min and stored below −70° C. until bioanalysis.
# Concentrations of M3 and M-IV in dog plasma samples were determined by fit-for-purpose LC-MS/MS method. Non-Compartmental-Analysis module in Phoenix WinNonlin® (Version 6.3) was used to assess the pharmacokinetic parameters. Peak plasma concentrations (Cmax) and time for the peak plasma concentrations (Tmax) were the […] observed values. The areas under the concentration time curve (AUClast and AUCinf) were calculated by linear trapezoidal rule.
# [5] = Plasma pharmacokinetics in mice after single oral 50 mg/kg M-III; format: in vivo; conditions: male C57BL/6 mice
# Procedure: To the plasma pharmacokinetics of 5-[[4-[2-[5-acetylpyridin-2-yl]ethoxy]phenyl]methyl]-1,3-thiazolidine-2,4-dione (M-III) and 5-[[4-[2-[5-(1-hydroxyethyl)pyridin-2-yl]ethoxy]phenyl]methyl]-1,3-thiazolidine-2,4-dione (M-IV) were determined in male C57BL/6 mice following a single oral (50 mg/kg) dose administration of M-III.
# Nine animals were administered orally with suspension formulation of M-III in 0.1% Tween 80 and 99.9% NaCMC in water (0.5% w/v) at 50 mg/kg dose. The dosing volume administered was 10 mL/kg. The blood samples were collected from set of three mice at each time point in labeled micro centrifuge tube containing K2EDTA solution as anticoagulant at Pre-dose, 0.25, 0.5, 1, 2, 4, 8, 12 and 24 hr. Plasma samples were separated by centrifugation of whole blood and stored below −70±10° C. until bioanalysis. All samples were processed for analysis by protein precipitation using acetonitrile and analyzed with fit-for-purpose LC-MS/MS method (LLOQ=2.46 ng/mL for M-III and 2.49 ng/mL for M-IV). Pharmacokinetic parameters were calculated using the non-compartmental analysis tool of Phoenix WinNonlin® (Version 6.3).
# [6] = as described in WO 2015/150476 A1; cited from earlier work
# mitochondrial pyruvate carrier (MPC), sequence (Q9Y5U8 whole entry, the tested form may be a part): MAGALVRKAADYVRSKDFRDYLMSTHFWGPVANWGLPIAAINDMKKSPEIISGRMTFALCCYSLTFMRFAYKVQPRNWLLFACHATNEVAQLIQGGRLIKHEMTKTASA
# mitochondrial pyruvate carrier (MPC), sequence (O95563 whole entry, the tested form may be a part): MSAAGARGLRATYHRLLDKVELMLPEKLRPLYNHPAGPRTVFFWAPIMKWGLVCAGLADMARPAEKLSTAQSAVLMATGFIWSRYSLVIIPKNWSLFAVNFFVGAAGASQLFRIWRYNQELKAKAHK
"share of total exposure (AUC) ([2]; after single oral 4.5 mg/kg M-III, male mice)","share of total exposure (AUC) ([2]; after single oral 4.5 mg/kg MIN-102, male mice)","share of total exposure (AUC) ([3]; after single oral 10 mg/kg M-III, male rats)","share of total exposure (AUC) ([3]; after single oral 10 mg/kg MIN-102, male rats)","share of total exposure (AUC) ([4]; after single oral 3 mg/kg M3, male dogs)","share of total exposure (AUC) ([4]; after single oral 3 mg/kg MIN-102, male dogs)",share of total exposure (AUC) [5],Compound,IC50 [1],blood-brain-barrier penetration [6]
,,,,,,,CN(CCOc1ccc(C[C@@H]2SC(=O)NC2=O)cc1)c1ccccn1 [Rosiglitazone],2000 nM,
,,,,,,,CCc1ccc(CCOc2ccc(CC3SC(=O)NC3=O)cc2)nc1 (stereo not shown) [Pioglitazone],> 100000 nM,
~75%,about 62%,~48%,about 58%,~84%,about 92%,about 75%,"CC(O)c1ccc(CCOc2ccc(CC3SC(=O)NC3=O)cc2)nc1 (stereo not shown) [M-IV, 5-[[4-[2-[5-(1-hydroxyethyl)pyridin-2-yl]ethoxy]phenyl]methyl]-1,3-thiazolidine-2,4-dione]",,penetrates the BBB

# Reference: US20240091210A1, “USE OF 5-[[4-[2-[5-ACETYLPYRIDIN-2-YL]ETHOXY]BENZYL]-1,3-THIAZOLIDINE-2,4-DIONE AND ITS SALTS” (Minoryx Therapeutics S.L., priority 2018, published 2024)
